Measured values: PubChem BioAssay AID248 (DTP/NCI, 2004)
Where “and” joins values, the source holds several entries; their conditions need not be identical. Equal entries are not always repeated. Toxic doses and inconclusive results are not listed. No stated cut-off is given here; in the data, active means T/C of 150% or more; inactive means T/C below 125%.

Test system: L1210 leukemia ip in BDF1 mice, survival T/C
Experiment: NCI In Vivo Anticancer Drug Screen. Data for tumor model L1210 Leukemia (intraperitoneal) in B6D2F1 (BDF1) mice
Details: endpoint: mean survival time, higher = longer survival
Summary of the method: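 In this screen, tumor-bearing mice given compound are compared to those given vehicle, and their survival values are reported as a treated-to-control quotient.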

[1] = dose: 100.0 mg/kg/injection, schedule: Q04DX002 (ip), vehicle: saline
[2] = dose: 100.0 mg/kg/injection, schedule: Q01DX001 (ip), vehicle: saline with Tween-80
[3] = dose: 100.0 mg/kg/injection, schedule: Q01DX009 (ip), vehicle: Klucel (hydroxypropylcellulose) (HPC)
[4] = dose: 200.0 mg/kg/injection, schedule: Q01DX009 (ip), vehicle: Klucel (hydroxypropylcellulose) (HPC)
[5] = dose: 400.0 mg/kg/injection, schedule: Q01DX009 (ip), vehicle: Klucel (hydroxypropylcellulose) (HPC)
[6] = dose: 100.0 mg/kg/injection, schedule: Q04DX003 (ip), vehicle: Klucel (hydroxypropylcellulose) (HPC)
[7] = dose: 200.0 mg/kg/injection, schedule: Q04DX003 (ip), vehicle: Klucel (hydroxypropylcellulose) (HPC)
[8] = dose: 400.0 mg/kg/injection, schedule: Q04DX003 (ip), vehicle: Klucel (hydroxypropylcellulose) (HPC)
[9] = dose: 100.0 mg/kg/injection, schedule: Q04DX002 (ip), vehicle: Klucel (hydroxypropylcellulose) (HPC)
[10] = dose: 200.0 mg/kg/injection, schedule: Q04DX002 (ip), vehicle: Klucel (hydroxypropylcellulose) (HPC)
[11] = dose: 400.0 mg/kg/injection, schedule: Q04DX002 (ip), vehicle: Klucel (hydroxypropylcellulose) (HPC)
[12] = dose: 100.0 mg/kg/injection, schedule: Q04DX003 (ip), vehicle: saline with Tween-80
[13] = dose: 200.0 mg/kg/injection, schedule: Q04DX003 (ip), vehicle: saline with Tween-80
[14] = dose: 100.0 mg/kg/injection, schedule: Q01DX001 (ip), vehicle: saline
[15] = dose: 200.0 mg/kg/injection, schedule: Q01DX001 (ip), vehicle: saline

Measured: T/C

C=CCOC(=O)C(C)(O)C(Cl)c1ccccc1 (configuration not stated)
inactive: [1] 103 % of control | dose: 200.0 mg/kg/injection, schedule: Q04DX002 (ip), vehicle: saline 100 % of control | dose: 400.0 mg/kg/injection, schedule: Q04DX002 (ip), vehicle: saline 100 % of control

COC(=S)Nc1cccc(OC(=O)NC(C)C)c1
inactive: [2] 97 % of control | dose: 200.0 mg/kg/injection, schedule: Q01DX001 (ip), vehicle: saline with Tween-80 95 % of control | dose: 400.0 mg/kg/injection, schedule: Q01DX001 (ip), vehicle: saline with Tween-80 100 % of control

CC(C)(C)C1CCCC(=O)CC1 (configuration not stated)
inactive: dose: 50.0 mg/kg/injection, schedule: Q01DX001 (ip), vehicle: saline 102 % of control

c1ccc(N2CCSCC2)cc1
inactive: dose: 12.0 mg/kg/injection, schedule: Q01DX Z (ip), vehicle: methylcellulose (MC) 108 % of control | dose: 18.0 mg/kg/injection, schedule: Q01DX Z (ip), vehicle: methylcellulose (MC) 110 % of control | dose: 27.0 mg/kg/injection, schedule: Q01DX Z (ip), vehicle: methylcellulose (MC) 103 % of control | dose: 40.5 mg/kg/injection, schedule: Q01DX Z (ip), vehicle: methylcellulose (MC) 92 % of control

CC(OC1OC(CO)C(OC2OC(CO)C(O)C(O)C2O)C(O)C1O)C1CC(O)C2C3CCC4=CC(=O)CCC4(C)C3CCC12C (configuration not stated)
inactive: dose: 25.0 mg/kg/injection, schedule: Q04DX002 (ip), vehicle: saline 104 % of control | dose: 50.0 mg/kg/injection, schedule: Q04DX002 (ip), vehicle: saline 107 % of control | [1] 96 % of control

O=C(Nc1cccc([N+](=O)[O-])c1)c1cccc(C(=O)Nc2cccc([N+](=O)[O-])c2)c1
inactive: [3] 94 % of control | [4] 89 % of control | [5] 89 % of control

CC(C)CC(CC(C)C)NC(C)COC(=O)c1ccc(N)cc1 (configuration not stated)
inactive: dose: 75.0 mg/kg/injection, schedule: Q01DX001 (ip), vehicle: saline 96 % of control

CCCCOc1ccc(C(N)=S)c2ccccc12
inactive: dose: 100.0 mg/kg/injection, schedule: Q01DX001 (ip), vehicle: Klucel (hydroxypropylcellulose) (HPC) 105 % of control | dose: 200.0 mg/kg/injection, schedule: Q01DX001 (ip), vehicle: Klucel (hydroxypropylcellulose) (HPC) 112 % of control | dose: 400.0 mg/kg/injection, schedule: Q01DX001 (ip), vehicle: Klucel (hydroxypropylcellulose) (HPC) 94 % of control

CC(=O)CC(=O)Nc1cc(Cl)ccc1C
inactive: [6] 92 % of control | [4] 92 % of control | [7] 97 % of control | [8] 92 % of control

C/C=C\c1ccc(OC(=O)NC)c(OC)c1
inactive: dose: 100.0 mg/kg/injection, schedule: Q01DX001 (ip), vehicle: carboxymethylcellulose (CMC) 99 % of control | dose: 100.0 mg/kg/injection, schedule: Q01DX009 (ip), vehicle: carboxymethylcellulose (CMC) 97 % of control and 104 % of control | [9] 100 % of control | dose: 100.0 mg/kg/injection, schedule: Q04DX002 (ip), vehicle: carboxymethylcellulose (CMC) 98 % of control and 104 % of control | dose: 100.0 mg/kg/injection, schedule: Q04DX003 (ip), vehicle: carboxymethylcellulose (CMC) 96 % of control | dose: 200.0 mg/kg/injection, schedule: Q01DX001 (ip), vehicle: carboxymethylcellulose (CMC) 100 % of control | dose: 200.0 mg/kg/injection, schedule: Q01DX009 (ip), vehicle: carboxymethylcellulose (CMC) 103 % of control and 104 % of control | [10] 103 % of control | dose: 200.0 mg/kg/injection, schedule: Q04DX002 (ip), vehicle: carboxymethylcellulose (CMC) 98 % of control and 108 % of control | dose: 200.0 mg/kg/injection, schedule: Q04DX003 (ip), vehicle: carboxymethylcellulose (CMC) 93 % of control | dose: 400.0 mg/kg/injection, schedule: Q01DX001 (ip), vehicle: carboxymethylcellulose (CMC) 99 % of control | dose: 400.0 mg/kg/injection, schedule: Q01DX009 (ip), vehicle: carboxymethylcellulose (CMC) 100 % of control and 101 % of control | [11] 103 % of control | dose: 400.0 mg/kg/injection, schedule: Q04DX002 (ip), vehicle: carboxymethylcellulose (CMC) 93 % of control and 98 % of control | dose: 400.0 mg/kg/injection, schedule: Q04DX003 (ip), vehicle: carboxymethylcellulose (CMC) 93 % of control

CCCCCCC(O)CCCCCCCCCCCO (configuration not stated)
inactive: [3] 108 % of control | [4] 97 % of control | [5] 103 % of control

C=CCSc1nc2c(N)ncnc2n1C1OC(CO)C(O)C1O (configuration not stated)
inactive: dose: 100.0 mg/kg/injection, schedule: Q01DX005 (ip), vehicle: saline 103 % of control | dose: 200.0 mg/kg/injection, schedule: Q01DX005 (ip), vehicle: saline 98 % of control

O=C(C1=CCCCC1)c1ccccc1
inactive: dose: 75.0 mg/kg/injection, schedule: Q04DX002 (ip), vehicle: saline with Tween-80 108 % of control | dose: 150.0 mg/kg/injection, schedule: Q04DX002 (ip), vehicle: saline with Tween-80 97 % of control | dose: 300.0 mg/kg/injection, schedule: Q04DX002 (ip), vehicle: saline with Tween-80 114 % of control

C=C(Cl)CN1C(=O)c2ccccc2C1=O
inactive: [9] 93 % of control | [10] 93 % of control | [11] 101 % of control

CCOC(=O)c1ccc(NC(=O)Oc2cc(C)ccc2C)cc1
inactive: [3] 93 % of control | [4] 92 % of control | [5] 90 % of control

C/C(=N\NS(=O)(=O)c1ccc(C)cc1)C1CCSC1 (configuration not stated)
inactive: dose: 100.0 mg/kg/injection, schedule: Q01DX009 (ip), vehicle: saline with Tween-80 93 % of control | [12] 111 % of control | dose: 200.0 mg/kg/injection, schedule: Q01DX009 (ip), vehicle: saline with Tween-80 101 % of control | [13] 98 % of control | dose: 400.0 mg/kg/injection, schedule: Q01DX009 (ip), vehicle: saline with Tween-80 90 % of control | dose: 400.0 mg/kg/injection, schedule: Q04DX003 (ip), vehicle: saline with Tween-80 96 % of control

O=C(Nc1c(Br)cc2c(c1Br)Cc1cc(Br)ccc1-2)C(F)(F)F
inactive: [14] 94 % of control | [15] 101 % of control | dose: 400.0 mg/kg/injection, schedule: Q01DX001 (ip), vehicle: saline 106 % of control

CC(=O)OC(CC[P+](c1ccccc1)(c1ccccc1)c1ccccc1)(C(=O)c1ccccc1)c1ccccc1 (configuration not stated)
inactive: [2] 95 % of control

CC1(C)C2CC3C(=CCCC3C#N)C1C2 (configuration not stated)
inactive: [3] 105 % of control | [6] 97 % of control | [4] 97 % of control | [7] 95 % of control | [5] 103 % of control | [8] 92 % of control

O/N=C1\CN2CCC1CC2
inactive: dose: 18.75 mg/kg/injection, schedule: Q04DX003 (ip), vehicle: saline 104 % of control | dose: 25.0 mg/kg/injection, schedule: Q01DX001 (ip), vehicle: saline with Tween-80 97 % of control | dose: 37.5 mg/kg/injection, schedule: Q04DX003 (ip), vehicle: saline 98 % of control | dose: 50.0 mg/kg/injection, schedule: Q01DX001 (ip), vehicle: saline with Tween-80 97 % of control | dose: 75.0 mg/kg/injection, schedule: Q04DX003 (ip), vehicle: saline 102 % of control | [2] 102 % of control

COc1ccccc1/C=C(\SS/C(=C/c1ccccc1OC)C(=O)O)C(=O)O
inactive: [14] 120 % of control | [15] 91 % of control

O=[N+]([O-])c1cc(S(=O)(=O)O)cc([N+](=O)[O-])c1NN(c1ccccc1)c1ccccc1
inactive: dose: 44.0 mg/kg/injection, schedule: Q04DX003 (ip), vehicle: other 100 % of control | dose: 87.0 mg/kg/injection, schedule: Q04DX003 (ip), vehicle: other 92 % of control | dose: 175.0 mg/kg/injection, schedule: Q04DX003 (ip), vehicle: other 103 % of control

CCCCP(=[Se])(CCCC)CCCC
inactive: dose: 0.78 mg/kg/injection, schedule: Q01DX009 (ip), vehicle: Klucel (hydroxypropylcellulose) (HPC) 93 % of control | dose: 1.56 mg/kg/injection, schedule: Q01DX009 (ip), vehicle: Klucel (hydroxypropylcellulose) (HPC) 97 % of control | dose: 3.12 mg/kg/injection, schedule: Q01DX009 (ip), vehicle: Klucel (hydroxypropylcellulose) (HPC) 112 % of control | dose: 6.25 mg/kg/injection, schedule: Q01DX009 (ip), vehicle: Klucel (hydroxypropylcellulose) (HPC) 104 % of control

COC(=O)/C=C(\C)C(C)=Nc1ccccc1
inactive: [12] 106 % of control | [13] 106 % of control
